Data on 4 compounds can be found in article PMC4658336, “Identification and activity of inhibitors of the essential nematode-specific metalloprotease DPY-31” (Bioorganic & Medicinal Chemistry Letters, 2015).

Where a SMILES comes first, the peptide text is derived from it.

Assay [1] has as its target T1, recombinant DPY-31 from T. circumcincta (Teladorsagia circumcincta, UniProt A0A0C5PRQ1).
T1 construct: made in house; host or cells: E. coli (inferred from the codon optimisation and the pET28a(+) vector)
In words: rDPY-31 absorbance assay (astacin assay, Suc-Ala-Ala-Ala-pNA substrate). As to conditions: T. circumcincta enzyme; species not given; read-out: IC50 rDPY-31 (in vitro absorbance assay). It is filed as biochemical. The text has this: (§1) In total, 104 compounds were screened against recombinant DPY-31 from both the human parasite B. malayi as well as the sheep GI parasite T. circumcincta using an absorbance assay.[(i)], [10] […] This may be due to the extremely slow binding kinetics of these inhibitors.[17]
(§2) The 684bp and 675bp sequences encoding the astacin domains of T. circumcincta DPY-31, and B. malayi DPY-31, were codon-optimised for E. coli by GeneArt (Life Technologies), and cloned into vector pMA-T. These plasmids were then inserted into the pET28a(+) vector, expression of the encoded proteins was induced and the resulting proteins were purified following the methods described previously. Zinc metalloprotease assays were performed to determine the activity of the recombinant DPY-31 proteins from these nematode species, using the previously described method.^18
(§3) An astacin assay was performed to determine the inhibitory activity of all compounds against recombinant DPY-31 from the two nematode species. Briefly, 150 µg/ml of recombinant enzyme was incubated with 0.1 mM ZnCl2 and various concentrations (5 µM to 400 µM) of compound, and the volume was made up to a total of 100 µl with 50 mM NaPO4, pH 8.0 buffer. […] Absorbance was measured on a plate reader at 405 nm. […]

Another assay concerns crayfish astacin. Also on record: method as in PMID 8756323. As to conditions: cited from earlier work.
Assay [2] concerns the target T2, recombinant DPY-31 from B. malayi (Brugia malayi, UniProt A8Q2D1).
T2 construct: made in house; host or cells: E. coli (inferred from the codon optimisation and the pET28a(+) vector)
In words: rDPY-31 absorbance assay (astacin assay, Suc-Ala-Ala-Ala-pNA substrate). To be noted: ±standard error; 3 h pre-incubation, 37 °C, pH 8.0; read-out: pIC50 rDPY-31 B. malayi (converted). It is filed as biochemical.
Description: as §1, §2, §3

Assay [3] relates to free-living wild-type C. elegans N2. Description: Phenotypic screening against C. elegans N2 larvae. As to conditions: for phenotype induced: C. elegans N2, 96 well plate, 3 days, 50 μM to 2 mM. It is filed as in vivo, Caenorhabditis elegans. As for the experimental part:
(§4) These compounds were tested against three strains: free-living wild-type C. elegans N2, the T. circumcincta dpy-31 transgenically-rescued C. elegans dpy-31 mutant TP224, and parasitic T. circumcincta (Fig. 4). Phenotypes were evaluated in 96 well plate format over the course of 3 days using concentrations ranging from 50 μM to 2 mM. […] The similarity of these effects between wild-type C. elegans, the mutant strain, and T. circumcincta reinforces the conserved nature of this metalloprotease.
Compounds 8 and 9 were screened against C. elegans N2 L4s using 96-well plates. A single L4 was placed into each well in a total volume of 100 µL, made up of compound, M9 buffer and 5 µl 10x concentrated food (E. coli strain OP50), and incubated at 20 °C for 3 days, with the effects on the phenotypes recorded daily. The compounds were screened in duplicate at concentrations ranging from 50 µM to 2 mM. Actinonin (100 µM) was used as a positive control.^18 Representative offspring were transferred onto 2% agarose/0.01% azide pads on slides and viewed with a Zeiss Axioskop2 microscope. Images were taken using an AxioCam camera and Axiovision software.

The subject of assay [4] is T. circumcincta dpy-31 transgenically-rescued C. elegans dpy-31 mutant TP224. In words: Phenotypic screening against transgenic rescue strain TP224. As to conditions: for phenotype induced: TP224, 96 well plate, 3 days, 50 μM to 2 mM. It is filed as in vivo, Caenorhabditis elegans. As for the experimental part:
as §4
Compounds 8 and 9 were screened against C. elegans N2 or TP224 L4s at 100, 250 and 1000 µM, using 96-well plates. A single L4 was placed into each of the wells in a total volume of 100 µl, made up of compound, M9 buffer and 5 µl 10x concentrated OP50. The compound concentrations were tested in duplicate for each compound. The plates were sealed with gas-permeable covers and incubated at 20 °C for 3 days, with the effects on the phenotypes recorded daily. Representative worm images were taken as described in section 5.1.

The subject of assay [5] is parasitic T. circumcincta. In words: Phenotypic screening against T. circumcincta L1s and L3s. It is filed as in vivo, Teladorsagia circumcincta. As to conditions: for phenotype induced: T. circumcincta, 96 well plate, 50 μM to 2 mM. As for the experimental part: as §4
T. circumcincta L1s or exsheathed L3s were incubated with compounds 8 and 9 at 100, 500 and 1000 µM. 10-20 L1s were incubated per well of a 96-well plate, each well containing compound, 5 µl 10x concentrated OP50 and EBSS (Earle’s Balanced Salt Solution; Life Technologies) to 100 µl, and 10-20 L3s were incubated per well of a 96-well plate, each well containing compound and EBSS to 100 µl. Each compound was tested in duplicate for all concentrations. The plates were sealed with gas-permeable covers and incubated at 26 °C (L1s) or 40 °C (L3s) at 100 rpm for 7-8 days and any observations on development were recorded. Representative worm images were taken as described in section 5.1.

T1 sequence (A0A0C5PRQ1 151-614): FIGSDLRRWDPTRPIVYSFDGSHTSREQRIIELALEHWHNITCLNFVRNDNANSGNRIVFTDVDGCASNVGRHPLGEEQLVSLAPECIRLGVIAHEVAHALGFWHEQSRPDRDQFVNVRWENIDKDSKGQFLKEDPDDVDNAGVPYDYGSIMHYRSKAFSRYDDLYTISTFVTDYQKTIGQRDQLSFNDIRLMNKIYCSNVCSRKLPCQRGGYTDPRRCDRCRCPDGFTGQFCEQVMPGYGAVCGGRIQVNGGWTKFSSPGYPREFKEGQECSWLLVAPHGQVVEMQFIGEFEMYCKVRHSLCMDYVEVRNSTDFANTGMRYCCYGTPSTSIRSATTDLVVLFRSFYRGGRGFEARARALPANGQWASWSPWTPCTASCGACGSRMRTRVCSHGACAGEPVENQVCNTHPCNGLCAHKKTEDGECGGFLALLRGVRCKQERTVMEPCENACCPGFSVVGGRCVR
T2 sequence (A8Q2D1 211-410): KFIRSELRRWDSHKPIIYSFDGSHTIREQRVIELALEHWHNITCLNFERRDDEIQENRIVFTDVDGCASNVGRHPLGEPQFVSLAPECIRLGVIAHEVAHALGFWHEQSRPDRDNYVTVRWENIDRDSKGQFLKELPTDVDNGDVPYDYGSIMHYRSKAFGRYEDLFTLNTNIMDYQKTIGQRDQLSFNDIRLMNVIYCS

Take `COC(=O)C1CCCN1C(=O)C(C)CP(=O)(O)C(Cc1ccccc1)NC(=O)C(CCCCN)NC(=O)C1CCCN1C(=O)OCc1ccccc1` (stereo not drawn) [Compound 1]: the IC50 in assay [1] is more than 500 µM. Besides, in the assay on crayfish astacin, the “inhibition of crayfish astacin” value is “mid-μM inhibitor”.
In the case of `CNC(=O)[C@@H](NC(=O)[C@H](CC(C)C)[C@H](O)C(=O)NO)C(C)(C)C` [Compound 3, marimastat], the IC50 in assay [2] was 200 µM.
Take `C[C@H](NC(=O)[C@@H]1CCCN1C(=O)OC(C)(C)C)C(=O)N[C@@H](Cc1ccccc1)C(=O)NO` [Compound 8] (HELM PEPTIDE1{[CC(C)(C)OC(=O)[*:2]].P.A.F.[ON[*:1]]}$$$$V2.0): the phenotype induced entry in assay [3], in assay [4] and in assay [5] was “induce the Dpy phenotype” throughout. The “phenotype observed (Figure 4b)” value in assay [3] (L1 C. elegans (N2), 50 μM) was “Dpy phenotype”. The “phenotype observed (Figure 4d)” value in assay [4] (L1 TP224, 100 μM) was “Dpy L1 phenotype”.
With `C[C@H](NC(=O)[C@@H]1CCCN1C(=O)OCC1c2ccccc2-c2ccccc21)C(=O)N[C@@H](Cc1ccccc1)C(=O)NO` [Compound 9] (HELM PEPTIDE1{[O=C(OCC1c2ccccc2-c2ccccc21)[*:2]].P.A.F.[ON[*:1]]}$$$$V2.0), the phenotype induced result in assay [3], in assay [4] and in assay [5] was “induce the Dpy phenotype” each time. In addition, the “phenotype observed (Figure 4f)” value in assay [5] (T. circumcincta L3, 500 μM) is recorded as “Dpy phenotype”.
